Results reported in patent publication US10537521B2 (priority 2016, dated 2020).
Values joined by “and” are separate entries in the source; they are usually repeats but may differ in a detail not shown here. Equal entries are not always repeated. Structures can show the parent of a compound that is named as a salt. Where two headings read alike, the source gives them in different places.

Assays:
[1] = Example 1: multiple-dose randomized 3-way crossover PK study of two IV tramadol regimens vs 100 mg oral q6h; conditions: human, plasma, plasma
Description: A fitted curve was obtained because the second oral peak was not measured in the study. For the modeling portion of the analysis, a validated Phoenix® WinNonlin® program version 6.4 (Certara) was used for PK analysis, simulation, graphics, tables and statistical calculations. […] For purposes of nonlinear regression, the data were weighted as 1/observed. Predicted concentration-time data were calculated based on the individual fitted PK parameters.

[2] = loading doses up to 150 mg IV, postoperative; cited from earlier work
[3] = Example 4: multiple dose steady-state dose proportionality study, tramadol injection 50/100 mg IV and Ultram tablet 50/100 mg oral q6h; assay type: in vivo, human; conditions: for Cmax, tramadol, Mean ± SD / Cmin, tramadol, Mean ± SD / Tmax, tramadol, Mean ± SD: steady-state, healthy volunteers
Description: The study was an open-label, single-period, randomized, parallel treatment design. Subjects received study drug every 6 hours beginning on the morning of Day 1 and ending on the morning of Day 3. The first dose on Day 1 and the last dose on Day 3 were administered after a minimum 10 hour fast.

[4] = cited from earlier work
[5] = system: experienced opioid abusers; conditions: cited from earlier work
[6] = system: patients undergoing abdominal surgery; conditions: cited from earlier work
[7] = tramadol single […] [100 mg] p.o., humans N=12 male; cited from earlier work
[8] = system: mice and rats; conditions: cited from earlier work
[9] = cited from earlier work; for CL/F (total clearance): humans n=10 male
[10] = system: rats and dogs; conditions: repeat-dose toxicity; cited from earlier work
[11] = standard in vitro and in vivo studies; cited from earlier work
[12] = after oral administration; cited from earlier work
[13] = Tramadol dosed as 50 mg IV every 6 hours
[14] = Tramadol dosed as 100 mg IV every 6 hours
[15] = Tramadol dosed as Oral (Ultram tablet) every 6 hours

Compound: COc1cccc([C@]2(O)CCCC[C@H]2CN(C)C)c1 (racemic) [Tramadol, (±)cis-2-[(dimethylamino)methyl]-1-(3-methoxyphenyl) cyclohexanol hydrochloride]
- Cmax ([1]; iv, 75 mg, Cmax(42-48), 75 mg IV regimen (h 0, 3, 6, then q6h to h 42), steady-state, mean): 827 ng/mL
- Cmax ([1]; iv, 75 mg, Cmax, 75 mg IV regimen (h 0, 3, 6, then q6h to h 42), mean): 932 ng/mL
- Tmax ([1]; iv, 75 mg, Tmax(0-3), 75 mg IV regimen (h 0, 3, 6, then q6h to h 42), mean): 0.5 h
- Tmax ([1]; iv, 75 mg, Tmax(3-6), 75 mg IV regimen (h 0, 3, 6, then q6h to h 42), mean): 3.31 h
- Tmax ([1]; iv, 75 mg, Tmax(42-48), 75 mg IV regimen (h 0, 3, 6, then q6h to h 42), mean): 42.4 h
- Tmax ([1]; iv, 75 mg, Tmax, 75 mg IV regimen (h 0, 3, 6, then q6h to h 42), mean): 15.9 h
- AUC(0-t) ([1]; po, 100 mg, AUC0-24, 100 mg oral q6h to h 42, mean): 7490 ng·h/mL
- AUC(0-t) ([1]; po, 100 mg, AUC0-48, 100 mg oral q6h to h 42, mean): 19100 ng·h/mL
- AUC ([1]; po, 100 mg, AUC24-48, 100 mg oral q6h to h 42, mean): 11600 ng·h/mL
- AUC ([1]; po, 100 mg, AUCtau 1, 100 mg oral q6h to h 42, first dosing interval, mean): 1490 ng·h/mL
- AUC ([1]; po, 100 mg, AUCtau n, 100 mg oral q6h to h 42, last dosing interval, mean): 3480 ng·h/mL
- concentration at 6 h ([1]; po, 100 mg, C6, 100 mg oral q6h to h 42, mean): 197 ng/mL
- concentration at 48 h ([1]; po, 100 mg, C48 (T48), 100 mg oral q6h to h 42, mean): 497 ng/mL
- concentration at 1 h ([1]; po, 100 mg, C1 h, 100 mg oral q6h to h 42, mean): 278 ng/mL
- Cmax ([1]; po, 100 mg, Cmax(0-6), 100 mg oral q6h to h 42, first dose, mean): 377 ng/mL
- Cmax ([1]; po, 100 mg, Cmax(42-48), 100 mg oral q6h to h 42, steady-state, mean): 701 ng/mL
- Cmax ([1]; po, 100 mg, Cmax, 100 mg oral q6h to h 42, mean): 701 ng/mL
- Tmax ([1]; po, 100 mg, Tmax(0-6), 100 mg oral q6h to h 42, mean): 1.54 h
- Tmax ([1]; po, 100 mg, Tmax(42-48), 100 mg oral q6h to h 42, mean): 44 h
- Tmax ([1]; po, 100 mg, Tmax, 100 mg oral q6h to h 42, mean): 44 h
- serious adverse effects [2]: not associated with any serious adverse effects
- Cmax, tramadol, Mean ± SD [3, 13]: 541 ± 126 ng/mL
- Cmin, tramadol, Mean ± SD [3, 13]: 203 ± 50 ng/mL
- Tmax, tramadol, Mean ± SD [3, 13]: 0.375 ± 0.189 h
- Cmin, tramadol, Mean ± SD ([3]; Tramadol dosed as 50 mg Oral (Ultram tablet) every 6 hours): 213 ± 93 ng/mL
- Cmax, tramadol, Mean ± SD [3, 14]: 1250 ± 236 ng/mL
- Cmin, tramadol, Mean ± SD [3, 14]: 539 ± 172 ng/mL
- Tmax, tramadol, Mean ± SD [3, 14]: 0.406 ± 0.442 h
- Cmax, tramadol, Mean ± SD [3, 15]: 703 ± 210 ng/mL
- Cmin, tramadol, Mean ± SD [3, 15]: 405 ± 151 ng/mL
- AUC ([3]; human, plasma, iv, 50 mg): 1970 ± 453 ng·h/mL
- AUC(0-inf) ([3]; human, plasma, iv, 50 mg): 4040 ± 1060 ng·h/mL
- AUC(0-t) ([3]; human, plasma, iv, 50 mg): 4010 ± 1050 ng·h/mL
- AUC ([3]; human, plasma, iv, 100 mg): 4730 ± 1240 ng·h/mL
- AUC(0-inf) ([3]; human, plasma, iv, 100 mg): 11400 ± 4540 ng·h/mL
- AUC(0-t) ([3]; human, plasma, iv, 100 mg): 11200 ± 4270 ng·h/mL
- AUC(0-inf) ([3]; human, plasma, po, 50 mg): 4450 ± 2110 ng·h/mL
- AUC(0-t) ([3]; human, plasma, po, 50 mg): 4360 ± 2030 ng·h/mL
- Cmax ([3]; human, plasma, po, 50 mg): ~368 ng/mL
- AUC(0-t) ([3]; human, plasma, po, 100 mg): 8660 ± 4260 ng·h/mL
- absolute bioavailability ([4]; oral, continuous dosing (Liao et al., 1992)): 90-100%
- increase of elimination half-life ([4]; subjects with renal or hepatic impairment): approximately 2 fold
- seizure ([5]; 200 mg IV administered over 5 minutes): No seizures were observed
- seizure ([5]; 300 mg IV delivered over 2.5 minutes): seizure was observed
- seizure ([5]; 700 mg IV administered over 1 minute): seizure was observed
- ratings of “liking” ([5]; tramadol 100 and 200 mg IV, morphine 10 and 20 mg IV, over 5 minutes, 10 experienced opioid abusers): neither dose of tramadol increased ratings
- ratings of “feel drug effect” compared to placebo ([5]; tramadol 100 and 200 mg IV, morphine 10 and 20 mg IV, over 5 minutes): significantly increased
- ratings on the ARCI-MBG scale ([5]; tramadol 100 and 200 mg IV, morphine 20 mg IV): neither dose of tramadol increased ratings
- patients reporting adverse events ([6]; both groups (infusion and bolus)): 25%
- effects on blood pressure or heart rate ([6]; infusion and bolus groups): no significant effects
- AUC [7]: 2177 ± 722 ng·h/mL
- Cmax [7]: 274 ± 75 ng/mL
- Tmax [7]: 1.6 ± 0.5 h
- t1/2 [7]: 5.9 ± 0.7 h
- carcinogenic potential [8]: no evidence of carcinogenic potential
- absolute bioavailability of the oral dose ([9]; 100 mg PO vs IV, based on AUC values, hydrochloride): 68±13% and 68%
- first pass metabolism ([9]; 100 mg PO, estimated): ~20%
- estimated absorption of the oral dose ([9]; 100 mg PO): 86-88%
- CL/F (total clearance) ([9]; 100 mg i.v., hydrochloride): 467 ± 124 mL/min
- CL/F (total clearance) ([9]; 100 mg i.v., listed as tramadol, hydrochloride): 710 ± 174 mL/min
- time to peak serum concentration (tmax) ([9]; 100 mg oral dosing): approximately 2 hours
- CL/F (total clearance) ([9]; 100 mg p.o., hydrochloride): 710 ± 174 mL/min
- CL/F (total clearance) ([9]; 100 mg p.o., listed as tramadol, hydrochloride): 467 ± 124 mL/min
- doses with behavioral/clinical signs and convulsions [10]: > 25 mg/kg/day
- genotoxic potential [11]: no evidence of genotoxic potential
- fertility or teratogenic effects [12]: no safety concerns
